In one experiment the target is T1, IKKε (Homo sapiens, UniProt Q14164).
T1 construct: His-tag; made in house; host or cells: Sf9 insect cells
T1 sequence (Q14164 1-716): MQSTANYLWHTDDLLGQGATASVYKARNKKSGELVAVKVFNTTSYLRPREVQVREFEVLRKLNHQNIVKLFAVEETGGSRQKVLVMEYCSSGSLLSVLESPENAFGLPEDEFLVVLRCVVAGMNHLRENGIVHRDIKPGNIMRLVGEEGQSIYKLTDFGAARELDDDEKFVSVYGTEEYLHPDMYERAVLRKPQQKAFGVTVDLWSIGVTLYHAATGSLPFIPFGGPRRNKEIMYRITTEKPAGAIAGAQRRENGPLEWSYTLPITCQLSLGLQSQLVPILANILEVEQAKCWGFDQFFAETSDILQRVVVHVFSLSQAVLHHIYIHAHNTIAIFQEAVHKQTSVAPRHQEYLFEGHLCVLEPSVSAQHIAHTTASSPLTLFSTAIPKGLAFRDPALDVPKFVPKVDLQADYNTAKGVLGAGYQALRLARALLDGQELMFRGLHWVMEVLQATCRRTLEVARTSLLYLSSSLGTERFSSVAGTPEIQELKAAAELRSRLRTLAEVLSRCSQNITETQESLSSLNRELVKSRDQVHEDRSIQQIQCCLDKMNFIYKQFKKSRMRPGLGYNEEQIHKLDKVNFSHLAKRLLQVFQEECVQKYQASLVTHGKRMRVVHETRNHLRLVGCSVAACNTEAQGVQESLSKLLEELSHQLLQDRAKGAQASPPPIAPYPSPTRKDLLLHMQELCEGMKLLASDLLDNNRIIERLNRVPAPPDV
The experiment can be described thus: In-vitro IKKε kinase assay ([γ33]ATP filter-plate). Type of experiment: biochemical. The method in brief: (§1)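 His-tagged IKKε and TBK1 from Sf9 cells were assayed with myelin basic protein or casein and [γ33]ATP at 2×Km ATP (32 μM for IKKε, 60 μM for TBK1). Enzyme was 0.1 or 0.015 μg/ml for IKKε and 0.1 or 0.02 μg/ml for TBK1 (normal/sensitized). Reactions ran 30-45 min, were filter-captured, scintillation-counted, and normalized to DMSO after background subtraction.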

The target in the next experiment is T2, TBK1 (Homo sapiens, UniProt Q9UHD2).
T2 construct: His-tag; made in house; host or cells: Sf9 insect cells
T2 sequence (Q9UHD2 1-729): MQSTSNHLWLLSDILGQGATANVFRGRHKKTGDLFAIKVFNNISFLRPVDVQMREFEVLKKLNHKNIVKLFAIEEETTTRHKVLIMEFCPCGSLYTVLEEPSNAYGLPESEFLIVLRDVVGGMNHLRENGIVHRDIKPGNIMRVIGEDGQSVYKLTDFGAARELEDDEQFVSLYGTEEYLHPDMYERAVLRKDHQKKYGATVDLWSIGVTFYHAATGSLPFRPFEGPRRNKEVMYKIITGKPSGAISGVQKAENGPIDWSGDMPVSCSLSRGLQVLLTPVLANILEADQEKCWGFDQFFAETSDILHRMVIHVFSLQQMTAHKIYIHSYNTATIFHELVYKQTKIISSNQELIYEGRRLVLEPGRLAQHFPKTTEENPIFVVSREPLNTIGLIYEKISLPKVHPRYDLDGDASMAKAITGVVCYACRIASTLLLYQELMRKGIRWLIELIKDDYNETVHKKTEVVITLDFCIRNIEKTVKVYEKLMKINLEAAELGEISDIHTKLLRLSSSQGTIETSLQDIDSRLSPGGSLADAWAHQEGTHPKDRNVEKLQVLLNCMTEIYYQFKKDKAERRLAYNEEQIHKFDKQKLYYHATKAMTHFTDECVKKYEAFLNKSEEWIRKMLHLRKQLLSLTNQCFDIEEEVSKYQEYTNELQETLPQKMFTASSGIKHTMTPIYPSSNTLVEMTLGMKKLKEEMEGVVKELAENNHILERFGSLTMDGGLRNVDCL
The experiment can be described thus: In-vitro TBK1 kinase assay ([γ33]ATP filter-plate). Type of experiment: biochemical. The method in brief:
as §1

Setting [1] is: text bins, read-out: IC50 for inhibition of the kinase activity of IKKε.
Where [2] appears, read: text bins, read-out: IC50 for inhibition of the kinase activity of TBK1.

Molecules are shown by their SMILES. Like-named read-outs stand apart in the source and are kept apart here.

As usually defined, the IC50 is the concentration needed to halve the response being measured.

In the case of `COc1cc(NC(=O)NC[C@H](C)O)cc(Nc2nccc(-c3ccc(OC)c(C#N)c3)n2)c1` [compound 359, 1-(3-{[4-(3-Cyano-4-methoxyphenyl)pyrimidin-2-yl]amino}-5-methoxyphenyl)-3-[(2S)-2-hydroxypropyl]urea], the IC50 at IKKε (setting [1]) was 5 to 50 nM; on TBK1 (setting [2]), 10 to 100 nM.

For the compound `N#Cc1cc(-c2ccnc(Nc3ccc(N4CCOCC4)cc3)n2)ccc1OCCC1CCN(C(=O)CO)CC1` [compound 457, 2-{2-[1-(hydroxyacetyl)piperidin-4-yl]ethoxy}-5-(2-{[4-(morpholin-4-yl)phenyl]amino}pyrimidin-4-yl)benzonitrile], the IC50 lay within 5 to 50 nM on IKKε (setting [1]) and 10 to 100 nM at TBK1 (setting [2]).

Consider `COCCNC(=O)c1ccc(Nc2nccc(-c3ccc(OCC(C)C)c(C#N)c3)n2)cc1` [compound 565, 4-({4-[3-Cyano-4-(2-methylpropoxy)phenyl]pyrimidin-2-yl}amino)-N-(2-methoxyethyl) benzamide], for which the IC50 at IKKε (Table 3, read-out: IKKε IC50) is 0.6 nM; at IKKε (setting [1]) it was under 5 nM; at TBK1 (Table 3, read-out: TBK1 IC50), 2.1 nM; at TBK1 (setting [2]) it was under 10 nM.

Consider `CC(C)C(=O)Nc1ccc(-c2ccnc(Nc3cccc(OCCN4CCOCC4)c3)n2)cc1C#N` [compound 432, N-{2-cyano-4-[2-({3-[2-(morpholin-4-yl)ethoxy]phenyl}amino)pyrimidin-4-yl]phenyl}-2-methylpropanamide], for which the results for the 50% inhibitory concentration (IC50) at IKKε (setting [1]) and at TBK1 (setting [2]) were 5 to 50 nM and 10 to 100 nM, respectively.

Consider `CCN(CC)CCN(CC)C(=O)Cc1cccc(Nc2nccc(-c3ccc(OC4CCOCC4)c(C#N)c3)n2)c1` [compound 409, 2-[3-({4-[3-Cyano-4-(tetrahydro-2H-pyran-4-yloxy)phenyl]pyrimidin-2-yl}amino)phenyl]-N-[2-(diethylamino)ethyl]-N-ethylacetamide], for which the concentration for half-maximal inhibition (IC50) is 5 to 50 nM at IKKε (setting [1]) and under 10 nM on TBK1 (setting [2]).

As to `N#Cc1cc(-c2ccnc(Nc3ccc(N4CCOCC4)cc3)n2)ccc1OCCNC=O` [Example 230, N-{2-[2-cyano-4-(2-{[4-(morpholin-4-yl)phenyl]amino}pyrimidin-4-yl)phenoxy]ethyl} formamide], the IC50 on IKKε (setting [1]) was 5 to 50 nM; at TBK1 (setting [2]) it was under 10 nM.

Turning to `N#Cc1cc(-c2ccnc(Nc3ccc(N4CCOCC4)c(C4CC4)c3)n2)ccc1OC1CCOCC1` [compound 329, 5-(2-{[3-cyclopropyl-4-(morpholin-4-yl)phenyl]amino}pyrimidin-4-yl)-2-(tetrahydro-2H-pyran-4-yloxy)benzonitrile], the IC50 is under 5 nM at IKKε (setting [1]) and under 10 nM at TBK1 (setting [2]).

For the compound `N#Cc1cc(-c2ccnc(Nc3ccc(N4CCOCC4)cc3)n2)ccc1NCc1ccccc1` [Example 224], the IC50 on IKKε (setting [1]) lay within 5 to 50 nM; on TBK1 (setting [2]), 10 to 100 nM.

Turning to `COc1cc(Nc2nccc(-c3ccc(OC4CCOCC4)c(C#N)c3)n2)ccc1S(=O)(=O)NCCCO` [Example 155, 4-({4-[3-cyano-4-(tetrahydro-2H-pyran-4-yloxy)phenyl]pyrimidin-2-yl}amino)-N-(3-hydroxypropyl)-2-methoxybenzene-sulfonamide], the 50% inhibitory concentration (IC50) is under 5 nM at IKKε (setting [1]) and under 10 nM on TBK1 (setting [2]).

Consider `N#Cc1cc(-c2ccnc(Nc3ccccc3)n2)ccc1OC1CCOCC1` [Example 12], for which the IC50 on IKKε (setting [1]) is 5 to 50 nM; at TBK1 (setting [2]), 10 to 100 nM.

With `CCC(C)C(=O)Nc1ccc(-c2ccnc(Nc3ccc(N4CCOCC4)cc3)n2)cc1C#N` (stereo not drawn) [compound 417, N-[2-cyano-4-(2-{[4-(morpholin-4-yl)phenyl]amino}pyrimidin-4-yl)phenyl]-2-methylbutanamide], the IC50 was 5 to 50 nM at IKKε (setting [1]) and under 10 nM on TBK1 (setting [2]).

As to `CN(C)C(=O)CCNc1ccc(Nc2nccc(-c3ccc(OC4CCOCC4)c(C#N)c3)n2)cc1` [Example 209, N~3~-[4-({4-[3-cyano-4-(tetrahydro-2H-pyran-4-yloxy)phenyl]pyrimidin-2-yl}amino)phenyl]-N,N-dimethyl-beta-alaninamide], the IC50 was 5 to 50 nM on IKKε (setting [1]) and under 10 nM on TBK1 (setting [2]).

`COc1cc(Nc2nccc(-c3ccc(OC)c(C#N)c3)n2)cc(OC2CCN(C)CC2)c1` [Example 259, 2-Methoxy-5-[2-({3-methoxy-5-[(1-methylpiperidin-4-yl)oxy]phenyl}amino)pyrimidin-4-yl]benzonitrile]: the IC50 at IKKε (setting [1]) was in the range of 5 to 50 nM; at TBK1 (setting [2]), 10 to 100 nM.

For the compound `COc1ccc(Nc2nccc(-c3ccc(NC(=O)C(C)C)c(C#N)c3)n2)cc1OCCCN1CCOCC1` [compound 433, N-{2-cyano-4-[2-({4-methoxy-3-[3-(morpholin-4-yl)propoxy]phenyl}amino)pyrimidin-4-yl]phenyl}-2-methylpropanamide], the results for the IC50 on IKKε (setting [1]) and at TBK1 (setting [2]) were 5 to 50 nM and under 10 nM, respectively.

Consider `COc1cc(Nc2nccc(-c3ccc(OC(C)C)c(C#N)c3)n2)cc(OC)c1OC` [Example 33, 2-(Propan-2-yloxy)-5-{2-[(3,4,5-trimethoxyphenyl)amino]pyrimidin-4-yl}benzonitrile], for which the results for the IC50 at IKKε (setting [1]) and at TBK1 (setting [2]) were under 5 nM and under 10 nM, respectively.

Take `COc1ccc(-c2ccnc(Nc3ccc(N4CCC(N5CCN(C)CC5)CC4)c(OC)c3)n2)cc1C#N` [Example 65, 2-Methoxy-5-[2-({3-methoxy-4-[4-(4-methylpiperazin-1-yl)piperidin-1-yl]phenyl}amino)pyrimidin-4-yl]benzonitrile]: the IC50 on IKKε (setting [1]) is 5 to 50 nM; on TBK1 (setting [2]) it was under 10 nM.

`CC(C)C(=O)Nc1ccc(-c2ccnc(Nc3cccc(CC(=O)N4CCN(C(C)C)CC4)c3)n2)cc1C#N` [compound 423, N-(2-cyano-4-{2-[(3-{2-oxo-2-[4-(propan-2-yl)piperazin-1-yl]ethyl}phenyl)amino]pyrimidin-4-yl}phenyl)-2-methylpropanamide]: the IC50 was 5 to 50 nM on IKKε (setting [1]) and under 10 nM at TBK1 (setting [2]).

Take `N#Cc1cc(-c2ccnc(Nc3ccc(F)c(OCCN4CCNCC4)c3)n2)ccc1OCC1CC1` [compound 654, 2-(Cyclopropylmethoxy)-5-[2-({4-fluoro-3-[2-(piperazin-1-yl)ethoxy]phenyl}amino)pyrimidin-4-yl]benzonitrile]: the IC50 was under 5 nM at IKKε (setting [1]) and under 10 nM on TBK1 (setting [2]).

`C[C@H](O)C(=O)N1CCC(Oc2ccc(-c3ccnc(Nc4ccc(C(=O)N(C)CCN(C)C)cc4)n3)cc2C#N)CC1` [compound 331, 4-({4-[3-cyano-4-({1-[(2S)-2-hydroxypropanoyl]piperidin-4-yl}oxy)phenyl]pyrimidin-2-yl}amino)-N-[2-(dimethylamino)ethyl]-N-methylbenzamide]: the IC50 at IKKε (setting [1]) is under 5 nM; on TBK1 (setting [2]) it was under 10 nM.

Regarding `COc1ccc(-c2ccnc(Nc3ccc(S(=O)(=O)NCCO)c(OC)c3)n2)cc1C#N` [Example 281, 4-{[4-(3-Cyano-4-methoxyphenyl)pyrimidin-2-yl]amino}-N-(2-hydroxyethyl)-2-methoxybenzene-sulfonamide], the values for the IC50 on IKKε (setting [1]) and on TBK1 (setting [2]) were 5 to 50 nM and 10 to 100 nM, respectively.

With `N#Cc1cc(-c2ccnc(Nc3cccc(CS(=O)(=O)NCCO)c3)n2)ccc1OCC1CC1` [compound 611, 1-[3-({4-[3-Cyano-4-(cyclopropylmethoxy)phenyl]pyrimidin-2-yl}amino)phenyl]-N-(2-hydroxyethyl) methanesulfonamide], the IC50 on IKKε (Table 3, read-out: IKKε IC50) was 1.5 nM; at IKKε (setting [1]), under 5 nM; on TBK1 (Table 3, read-out: TBK1 IC50), 0.6 nM; at TBK1 (setting [2]) it was under 10 nM.

For `COc1cc(Nc2nccc(-c3ccc(NC(=O)C(C)C)c(C#N)c3)n2)ccc1N1CCNC(=O)C1` [Example 88, N-[2-Cyano-4-(2-{[3-methoxy-4-(3-oxopiperazin-1-yl)phenyl]amino}pyrimidin-4-yl)phenyl]-2-methylpropanamide], the figures for the IC50 at IKKε (setting [1]) and at TBK1 (setting [2]) were under 5 nM and under 10 nM, respectively.

For the origin of these results see patent US20150352108A1, “AMINO-PYRIMIDINE COMPOUNDS AS INHIBITORS OF TBK1 AND/OR IKK EPSILON” (Alzheimer's Institute of America, priority 2009, published 2015).
